Values of other authors as cited in patent publication US10195128B2, “Oral care compositions” (Colgate-Palmolive Company, priority 2016, dated 2019).

Details: oral or intraperitoneal administration; after consumption

- Time to excretion of glucuronide compounds and sulphate conjugates in urine: ≤ 24 h
SMILES: COc1cc(CCC(C)=O)ccc1O [zingerone, 4-(3-methoxy-4-hydroxyphenyl)-butan-2-one]
